Measured values: PMC9750872, “Ras-mutant cancers are sensitive to small molecule inhibition of V-type ATPases in mice” (Nature biotechnology, 2022)
“Also recorded” adds a separate entry of the source.

Key:
[1] = target: human ether-à-go-go-related gene (hERG) (Homo sapiens, UniProt Q12809); assay: hERG fluorescence polarization assay; conditions: at 30 μM
[2] = target: T1, hERG (Homo sapiens, UniProt Q12809); assay: in vitro
[3] = tested on: human primary cells; assay: BioMAP Safety and Toxicology screening profile; assay type: cell-based
Experimental: The BioMAP Toxicity Screening Profile was performed as described previously.

[4] = target: T2, Yeast V-ATPase (Saccharomyces cerevisiae, UniProt P25515+P41807); assay: Biochemical V-ATPase (ATP hydrolysis) assay
T2 construct: V-ATPase was purified as described previously from yeast[82] using the detergent dodecylmaltoside; endogenous in cells; host or cells: yeast
T2 sequence (P25515 whole entry): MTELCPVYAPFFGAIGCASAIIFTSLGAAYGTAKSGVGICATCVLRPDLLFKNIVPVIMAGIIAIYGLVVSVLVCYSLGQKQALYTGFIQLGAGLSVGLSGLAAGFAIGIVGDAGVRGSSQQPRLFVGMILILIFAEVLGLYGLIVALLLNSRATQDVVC
T2 sequence (P41807 2-478): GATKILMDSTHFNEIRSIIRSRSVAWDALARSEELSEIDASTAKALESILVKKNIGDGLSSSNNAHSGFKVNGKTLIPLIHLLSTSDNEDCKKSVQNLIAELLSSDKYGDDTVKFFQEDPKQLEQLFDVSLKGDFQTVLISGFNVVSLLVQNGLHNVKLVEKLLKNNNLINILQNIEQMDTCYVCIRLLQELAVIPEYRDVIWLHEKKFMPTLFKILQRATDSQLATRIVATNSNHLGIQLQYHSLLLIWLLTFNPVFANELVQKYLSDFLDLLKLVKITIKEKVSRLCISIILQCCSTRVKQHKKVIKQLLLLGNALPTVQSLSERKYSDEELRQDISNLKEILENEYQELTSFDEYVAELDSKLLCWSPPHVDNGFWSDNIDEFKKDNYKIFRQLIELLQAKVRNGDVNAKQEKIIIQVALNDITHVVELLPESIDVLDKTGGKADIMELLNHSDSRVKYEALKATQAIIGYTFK
Experimental: V-ATPase was purified as described previously from yeast[82] using the detergent dodecylmaltoside and porcine kidney[83] using the detergent glycol-diosgenin. ATPase assays with purified V-ATPase were performed as described previously. 249C (mammalian: 0.1, 1, 10, 100 μM and yeast: 5, 10 and 100 μM) or BafA1 (1 μM) were added to the reaction and compared with a negative control to which only DMSO was added. Enzyme-coupled ATPase biochemical activity assays were performed in a 96-well plate as described previously. […]
appears to cause accumulation of high molecular weight entities. Representative of 3 independent experiments. […]
observed. Data shown are mean ± SD ( n = 3) Two-tailed student’s t-test (C) ATP-dependent fluorescence quenching in yeast (me an ± SD; n = 3 ) Two-t ailed student’s t-test (D) SDS PAGE over th e cou rse of recombinant human ATP6V1H protein purification. 1. Mark ers; 2. Total l ysate (GST-fusion […]); 3. Soluble lysate; 4.
GSTrap flow-through; 5. GSTrap elute; 6. Post thrombin cleavage (target 54 kDa, GST 25 kDa); 7. Subtractive GSTrap flow -through; 8. Markers; 9. Final sample, 1 µg protein load. Repres entative of 2 independent ex periments. (E) Structure of biotin- 249C. […]
interfere with V-ATPas e binding. ( F) Experimental schematic of Bio-la yer inferometr y (B L I) .
(1 picture or pasted object on this page, not shown here)

[5] = tested on: V-ATPase-dependent proton transport in HEK293T cells; assay: Proton pumping assay, FITC-Dextran-loaded lysosomes; assay type: cell-based, human; conditions: 1 h treatment, listed as BafA1
Description: Figure 4. […] (A) Model of the reversible assembly of V-ATPase. Cytosolic V1 subunits are depicted in blue and membrane Vo subunits in purple. Upon V-ATPase assembly, ATP is hydrolyzed to ADP accompanied by proton (H^+) pumping and luminal acidification (decrease in pH) (Created with BioRender). […] The amount of subunit B2 present in the membrane fraction indicates the amount of assembled V-ATPase. A representative Western blot is presented. […] Cells were mechanically lysed, and a fraction containing FITC-Dextran-loaded lysosomes was isolated by sedimentation centrifugation. Fluorescence was measured over time to assess pH-dependent quenching following addition of 1 mM magnesium-ATP (predetermined). […] Representative of 5 individual experiments with n = 3 for each is presented (mean ± SD) (D) Mammalian V-ATPase activity measured in the absence and presence of 1 μM 249C and 1 μM BafA1. Data shown are mean ± SD; n = 3. […]
4 × 10^6 HEK 293T cells were plated in 10-cm plates. […] Sample fluorescence was excited at 490 nm, and emission fluorescence at 520 nm was measured continuously in BioTek plate reader (Synergy) using Gen5 software (version 3.05). After initial fluorescence stabilization, 1 mM ATP and 2 mM MgCl2 were added to initiate ATPase activity and proton pumping into the lysosomes, which causes quenching of FITC in the lysosomal lumen. […]

[6] = target: T1, hERG; assay: hERG fluorescence polarization assay; conditions: human
[7] = target: T3, mammalian V-ATPase purified from pig kidneys (Sus scrofa, UniProt Q9TVC1); assay: Biochemical V-ATPase (ATP hydrolysis) assay; conditions: concentrations as low as 1 μM
T3 construct: the entire V-ATPase complex (800 kDa) was purified as described previously from porcine kidneys; from tissue; host or cells: porcine kidney
T3 sequence (Q9TVC1 whole entry): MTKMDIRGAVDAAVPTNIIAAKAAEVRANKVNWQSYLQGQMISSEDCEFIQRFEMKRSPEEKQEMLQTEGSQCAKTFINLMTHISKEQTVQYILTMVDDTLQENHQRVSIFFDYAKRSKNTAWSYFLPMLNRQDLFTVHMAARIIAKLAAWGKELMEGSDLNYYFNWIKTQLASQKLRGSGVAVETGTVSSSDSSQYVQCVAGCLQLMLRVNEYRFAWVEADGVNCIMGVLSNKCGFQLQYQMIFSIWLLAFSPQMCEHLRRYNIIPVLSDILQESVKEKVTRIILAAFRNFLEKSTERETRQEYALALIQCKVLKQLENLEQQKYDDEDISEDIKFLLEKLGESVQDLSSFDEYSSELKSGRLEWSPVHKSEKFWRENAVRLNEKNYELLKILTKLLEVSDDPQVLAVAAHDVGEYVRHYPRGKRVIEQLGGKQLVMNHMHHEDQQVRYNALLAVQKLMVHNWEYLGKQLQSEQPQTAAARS
T3 sequence (Q29048 whole entry partner): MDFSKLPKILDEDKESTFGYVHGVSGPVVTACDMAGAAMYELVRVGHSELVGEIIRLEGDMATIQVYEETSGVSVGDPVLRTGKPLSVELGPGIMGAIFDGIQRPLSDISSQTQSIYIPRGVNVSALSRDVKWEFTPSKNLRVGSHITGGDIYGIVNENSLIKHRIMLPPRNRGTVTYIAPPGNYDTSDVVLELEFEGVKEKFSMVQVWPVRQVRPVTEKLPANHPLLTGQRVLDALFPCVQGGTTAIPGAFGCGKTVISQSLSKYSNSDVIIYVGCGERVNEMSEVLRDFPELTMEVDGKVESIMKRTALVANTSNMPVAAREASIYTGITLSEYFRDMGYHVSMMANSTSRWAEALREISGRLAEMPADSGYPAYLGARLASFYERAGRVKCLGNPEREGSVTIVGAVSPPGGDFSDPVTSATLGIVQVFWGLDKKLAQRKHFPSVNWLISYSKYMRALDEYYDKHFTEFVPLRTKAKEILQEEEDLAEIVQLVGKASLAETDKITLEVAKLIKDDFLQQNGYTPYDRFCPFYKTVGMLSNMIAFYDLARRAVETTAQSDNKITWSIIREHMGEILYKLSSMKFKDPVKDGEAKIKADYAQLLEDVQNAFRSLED
Experimental: V-ATPase was purified as described previously from yeast[82] using the detergent dodecylmaltoside and porcine kidney[83] using the detergent glycol-diosgenin. ATPase assays with purified V-ATPase were performed as described previously. 249C (mammalian: 0.1, 1, 10, 100 μM and yeast: 5, 10 and 100 μM) or BafA1 (1 μM) were added to the reaction and compared with a negative control to which only DMSO was added. Enzyme-coupled ATPase biochemical activity assays were performed in a 96-well plate as described previously.

T1 sequence (Q12809 whole entry): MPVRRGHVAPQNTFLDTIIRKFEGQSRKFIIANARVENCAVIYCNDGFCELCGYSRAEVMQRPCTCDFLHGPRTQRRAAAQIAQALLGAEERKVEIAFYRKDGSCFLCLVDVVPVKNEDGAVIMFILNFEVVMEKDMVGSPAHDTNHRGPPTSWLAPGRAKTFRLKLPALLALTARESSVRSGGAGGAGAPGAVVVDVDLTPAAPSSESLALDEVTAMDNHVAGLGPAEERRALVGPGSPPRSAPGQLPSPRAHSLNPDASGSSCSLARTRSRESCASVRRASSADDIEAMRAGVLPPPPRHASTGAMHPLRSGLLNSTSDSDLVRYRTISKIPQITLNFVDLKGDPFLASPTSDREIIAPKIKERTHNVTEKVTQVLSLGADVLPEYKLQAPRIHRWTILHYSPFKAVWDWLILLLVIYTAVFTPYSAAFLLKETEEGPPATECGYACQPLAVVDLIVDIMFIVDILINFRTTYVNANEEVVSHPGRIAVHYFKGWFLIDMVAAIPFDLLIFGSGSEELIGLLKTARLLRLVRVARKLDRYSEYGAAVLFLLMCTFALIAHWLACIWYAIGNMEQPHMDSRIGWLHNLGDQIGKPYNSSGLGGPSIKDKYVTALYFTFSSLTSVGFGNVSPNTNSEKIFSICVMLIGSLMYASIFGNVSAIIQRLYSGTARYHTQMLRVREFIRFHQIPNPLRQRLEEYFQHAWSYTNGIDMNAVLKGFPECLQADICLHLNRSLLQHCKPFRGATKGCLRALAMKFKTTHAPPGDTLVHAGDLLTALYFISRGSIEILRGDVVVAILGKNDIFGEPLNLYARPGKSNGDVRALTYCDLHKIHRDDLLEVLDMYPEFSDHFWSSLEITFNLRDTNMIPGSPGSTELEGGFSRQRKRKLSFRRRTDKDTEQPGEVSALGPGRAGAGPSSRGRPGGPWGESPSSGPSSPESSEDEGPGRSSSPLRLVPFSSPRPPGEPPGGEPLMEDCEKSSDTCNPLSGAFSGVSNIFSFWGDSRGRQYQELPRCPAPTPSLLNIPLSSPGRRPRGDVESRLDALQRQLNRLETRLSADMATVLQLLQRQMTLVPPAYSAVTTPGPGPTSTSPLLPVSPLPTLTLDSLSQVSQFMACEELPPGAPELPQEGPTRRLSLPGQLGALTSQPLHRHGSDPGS
Sequence of human ether-à-go-go-related gene (hERG) (Q12809 whole entry): as above

SMILES: CN(CCCCCCNc1ccnc2cc(Cl)ccc12)CCCCCCNc1ccnc2cc(Cl)ccc12 [DC661]
- Percent inhibition of hERG [1]: 100%

SMILES: CCN(CCO)CCCC(C)Nc1ccnc2cc(Cl)ccc12 (stereo not shown) [HCQ, hydroxychloroquine]
- inhibition at 30 µM [2]: ~60%
- BioMAP Screening Profile 3C:SRB ([3]; human, 1000 nM): 0
- BioMAP Screening Profile 4H:SRB ([3]; human, 1000 nM): 0
- BioMAP Screening Profile BE3C:SRB ([3]; human, 1000 nM): 0
- BioMAP Screening Profile BF4T:SRB ([3]; human, 1000 nM): 0
- BioMAP Screening Profile BT:PBMC Cytotoxicity ([3]; human, 1000 nM): 0
- BioMAP Screening Profile CASM3C:SRB ([3]; human, 1000 nM): 0
- BioMAP Screening Profile Cytotoxicity ([3]; human, 1000 nM): 0
- BioMAP Screening Profile HDF3CGF:SRB ([3]; human, 1000 nM): 0
- BioMAP Screening Profile KF3CT:SRB ([3]; human, 1000 nM): 0
- BioMAP Screening Profile LPS:SRB ([3]; human, 1000 nM): 0
- BioMAP Screening Profile MyoF:SRB ([3]; human, 1000 nM): 0
- BioMAP Screening Profile SAg:PBMC Cytotoxicity ([3]; human, 1000 nM): 0
- BioMAP Screening Profile SAg:SRB ([3]; human, 1000 nM): 0
- BioMAP Screening Profile lMphg:SRB ([3]; human, 1000 nM): 0
- BioMAP Screening Profile lMphg:SRB-Mphg ([3]; human, 1000 nM): 0

SMILES: CO/C1=C\C(C)=C\[C@@H](C)[C@@H](O)[C@@H](C)C/C(C)=C/C=C/[C@H](OC)[C@@H]([C@@H](C)[C@@H](O)[C@H](C)[C@@]2(O)C[C@@H](O)[C@H](C)[C@@H](C(C)C)O2)OC1=O [Bafilomycin A1, reference compound]
- Yeast V-ATPase activity [4]: modest inhibition
- V-ATPase-dependent proton transport (ATP-dependent fluorescence quenching) [5]: inhibited V-ATPase-dependent proton transport; also recorded: ATP-dependent fluorescence quenching was not observed
- inhibition at 30 µM [6]: 35%
- ATP hydrolysis of intact mammalian V-ATPase [7]: blocked ATP hydrolysis
- toxicity categories / adverse events in BioMAP safety profiling ([3]; over 100 biomarker readouts): 2
